The values that follow come from PMC10720437, “Non-therapeutic plasma levels in individuals utilizing curcumin supplements in daily life” (Frontiers in Nutrition, 2023).

Where “and” joins values, the source holds several entries; their conditions need not be identical. Equal values may be shown once.

Data set [1] can be described thus: Plasma levels of curcumin, metabolites and piperine by HPLC-MS/MS in participants using their own curcumin formulations. Type of data set: in vivo, human. The procedure:
This study is an observational, open-label study investigating the plasma concentration of curcumin as used in daily life. Each participant was instructed to bring their own curcumin formulation on the day of visit. Participants were asked not to take their curcumin formulation in the morning on the day of visit. Blood was taken just before intake of the curcumin supplement (trough concentration) and 1.5 h after intake (expected peak concentration). Any food or beverage intake between these time points was registered while participants were not allowed to take any additional curcumin in between these two time points.
Blood was collected in heparinized tubes and protected against light by wrapping in aluminum foil directly after sampling. All samples were centrifuged (Rotina 380R from Hettich) for 10 min at 2754 RCF and 20°C and the obtained plasma was immediately stored, protected from light, at –80°C until analysis.
To determine the active plasma concentrations of curcumin, demethoxycurcumin, bisdemethoxycurcumin, and tetrahydrocurcumin it is important to highlight the difference between conjugated and unconjugated forms of these different compounds. A way to show this difference is to pretreat each sample with and without β-glucoronidase. In short, we used β-glucoronidase from Sigma-Aldrich (St. Louis, MO, USA), which contained ≥300,000 U/g β-glucoronidase and ≥10,000 U/g sulfatase, which hydrolyzes the hydrophilic glucuronic and sulfate acid group from conjugated curcumin (Figure 1) ([19]). The optimal pH for β-glucoronidase activity is 5.0 ([20]). Although our final mixture of sample plus β-glucoronidase solution has a slightly higher pH, we confirmed that after 1 h incubation at 37°C and 850 repetition per minute (rpm), a plateau was reached. No further conversion of conjugated curcumin into deconjugated curcumin occurred, indicating a complete reaction. Therefore, adding β-glucoronidase/sulfatase mixture results in an increase of unconjugated curcumin, demethoxycurcumin, bisdemethoxycurcumin, and tetrahydrocurcumin by displaying the sum of ‘previous’ conjugated and unconjugated curcuminoids and tetrahydrocurcumin.
Plasma samples were analyzed by our validated HPLC-MS/MS method ([21]). In short, on the day of analysis, samples were thawed and pretreated with and without β-glucoronidase. The samples treated with β-glucoronidase were incubated with 20 U/μL β-glucuronidase at 37°C and 850 revolutions per minute (RPM) for 1 h. Liquid–liquid extraction with Tert Butyl Methyl Ether (TBME) as organic phase was used to extract the compounds from the plasma. Curcumin, demethoxycurcumin, bisdemethoxycurcumin, tetrahydrocurcumin and piperine were quantified in a single analytical run. The HPLC-MS/MS system consisted of an Ultimate 3000 autosampler and pump, both of Dionex, connected to a degasser from LC Packings. The autosampler, with a 100 μL sample loop, was coupled to a Sciex API4000 mass spectrometer. After injection of 50 μL sample, separation of the analytes was performed with an Agilent column 2.1 × 100 mm packed with material of Zorbax Extend 3.5 μm C-18. The flowrate was […] and the dual gradient mobile phase consisted of A: ultra-purified H2O with 0.1% formic acid and B: MeOH 100%. The applied gradient profile started at 50:50 A:B and increased linear to 95% B in 3.0 min. During 6 min a 5:95 A:B level is continued, after which it returned in 0.2 min to 50:50. Afterwards the system was equilibrated during 6 min at the starting level. Throughout the liquid–liquid extraction and HPLC-MS/MS the potential influence of light was minimized by working in an dark environment with aluminum foil as much as possible. Each analytical run included a set of freshly prepared calibration samples containing all compounds in the validated range of 2 nM to 400 nM.

For a further data set, the system named is CYP3A. Further details: method as in PMID 18480186. To be noted: cited from earlier work.
Data set [2] deals with mouse model for pancreatic cancer. On the set-up: method as in PMID 19528445. To be noted: cited from earlier work.
Details of data set [3]: method as in PMID 16545122. To be noted: oral dosages of up to 12 gram; cited from earlier work.
On the set-up of data set [4]: method as in PMID 9619120. To be noted: addition of 20 mg/kg piperine; rats; cited from earlier work.
For data set [5] the following is noted: cited from earlier work.
On the set-up of data set [6]: method as in PMID 9278892. The conditions noted are these: human blood incubated for 8 h at 37°C; cited from earlier work.
The mark [7] stands for this setting: human, in vivo, Plasma level in individual participants.
[8] abbreviates: with addition of β-glucuronidase, 0 h (trough), human plasma.
[9] abbreviates: with addition of β-glucuronidase, 1.5 h (expected peak), human plasma.
The mark [10] stands for this setting: without addition of β-glucuronidase, 0 h (trough), human plasma.
The mark [11] stands for this setting: human, in vivo, Mean concentration.

As to `COc1cc(/C=C/C(O)=C/C(=O)/C=C/c2ccc(O)cc2)ccc1O` [Demethoxycurcumin, demethoxycurcumin], in data set [1] (human, in vivo), the Plasma concentrations fell in the range of 1.0 to 18.6 ng/mL and the “Plasma level in individual participants” value is on record as less than 0.68 ng/mL. Further, in data set [1] (human, in vivo, 0 h), the Concentration range lay within 1.4 to 8.6 ng/mL and the Mean concentration stood at 3.5 ng/mL. Moreover, in data set [1] (human, in vivo, 1.5 h), the Concentration range lay within 0.9 to 73.1 ng/mL and the Mean concentration was found to be 9.4 ng/mL. The concentration at 1.5 h in data set [1] (setting [7]) is less than 0.68 ng/mL.
One may read the IC50 as the concentration that gives 50% inhibition. On to `O=C(/C=C/C=C/c1ccc2c(c1)OCO2)N1CCCCC1` [Piperine, piperine], for which, in data set [1] (human, in vivo), the “Fold lower than piperine plasma concentrations in literature that affect curcumin bioavailability” value was 10-60 fold; the “Trough and peak level concentrations” value fell in the range of 1.0 to 1096 ng/mL. For the same compound, the Detectability in plasma result in data set [1] (in vivo) is “detectable in all participants”. In the data set on CYP3A, the IC50 is 5.5 ± 0.7 µM.
As usually defined, the Cmax is the peak of the concentration-time curve. Consider curcumin, for which the “Fold below a plasma concentration expected to have a beneficial health effect” value in data set [1] (curcumin plasma level after adding β-glucuronidase (25.4 ng/mL)) came to 1000 fold. The Cmax in data set [1] (one of three participants using curcumin lipid formulations, dosage 800 mg) is 355 nM. For the same compound, the “Fold lower than the concentrations assessed in vitro” value in data set [1] (unconjugated free curcumin in plasma) was greater than 1000 fold. In addition, the “Detectable levels in # persons” value in data set [1] (setting [8]) was found to be 27; in data set [1] (setting [9]), 42; in data set [1] (setting [10]) it was 1; in data set [1] (without addition of β-glucuronidase, 1.5 h after intake (expected peak), human plasma), 2. Moreover, the Mean concentration in data set [1] (setting [8]) was 14.3 ng/mL; in data set [1] (setting [9]) it was 25.4 ng/mL; in data set [1] (setting [10]) it was 10.1 ng/mL; in data set [1] (without addition of β-glucuronidase, 1.5 h (expected peak), human plasma) it was 1.0 ng/mL. Further, in data set [1] (with β-glucuronidase, 1.5 h after dosing), the “Participants in whom curcumin after hydrolysis could not be detected (below LLOQ)” value was found to be 5. Also, the “Plasma level in individual participants” value in data set [1] (without β-glucuronidase, expected peak level, 1.5 h after intake) is 0.9 ng/mL and 1.1 ng/mL; in data set [1] (without β-glucuronidase, trough level), 10.1 ng/mL. For the same compound, the Tumor growth entry in data set [2] is listed as “reduced the tumor growth”. For the same compound, the “Levels of curcumin in the systemic circulation” value in data set [3] is listed as “no detectable levels”. Also, in data set [4], the “Increase of bioavailability of curcumin” value was 154%. In addition, the Curcumin concentrations entry in data set [5] (oral lipid formulations, β-glucuronidase added prior to analysis) is given as “up to 1189.1 ± 518.8 ng/mL”. Also, in data set [5] (β-glucuronidase added to plasma prior to analysis), the “Claimed plasma concentration relative to the concentration of unconjugated curcumin” value is on record as “up to 185 x”. Besides, the “Decrease of chemical t1/2” value in data set [6] was 50%.
As to `O=C(/C=C/c1ccc(O)cc1)CC(=O)/C=C/c1ccc(O)cc1` [Bisdemethoxycurcumin, bisdemethoxycurcumin], in data set [1] (human, in vivo), the Plasma concentrations lay in the range of 1.0 to 18.6 ng/mL and the “Plasma level in individual participants” value is recorded as 2.1 ng/mL. Moreover, in data set [1] (human, in vivo, 0 h), the Concentration range fell in the range of 0.7 to 2.7 ng/mL and the Mean concentration amounted to 1.6 ng/mL. Besides, in data set [1] (human, in vivo, 1.5 h), the Concentration range lay within 0.7 to 60.4 ng/mL and the Mean concentration was 6.1 ng/mL. In addition, the concentration at 0 h in data set [1] (setting [11]) is 2.1 ng/mL. Moreover, the concentration at 1.5 h in data set [1] (setting [7]) is less than 0.62 ng/mL.
As to `COc1cc(CCC(=O)CC(=O)CCc2ccc(O)c(OC)c2)ccc1O` [Tetrahydrocurcumin, tetrahydrocurcumin], in data set [1] (human, in vivo), the Plasma concentrations lay within 1.0 to 18.6 ng/mL and the “Plasma level in individual participants” value is listed as less than 0.74 ng/mL. In addition, in data set [1] (human, in vivo, 0 h), the Concentration range lay within 0.8 to 81.2 ng/mL and the Mean concentration came out at 14.6 ng/mL. In data set [1] (human, in vivo, 1.5 h), the Mean concentration is 21.6 ng/mL and the “Plasma level in individual participants” value worked out at 20.9 ng/mL. The concentration at 1.5 h in data set [1] (setting [11]) amounted to 18.6 ng/mL. Moreover, the concentration at 1.5 h in data set [1] (setting [7]) was 16.4 ng/mL.
